From patent US6602511B2, “Microemulsions for use as vehicles for administration of active compounds” (AstraZeneca AB, priority 1995, dated 2003)
Values after ≈ are worked out from the molar mass of the structure shown.

How the values were obtained:
[1] = Solubility of sparingly soluble substances in water, microemulsion and PEG 400 (50%)
Experimental: (§1) Different amounts of the substances were added to 1 ml samples of the microemulsion placed in glass vials. The samples were rotated for 48 hours to allow a complete wetting of the solid substance. The samples were than kept in a waterbath at 25° C. for at least one week before inspection. The samples were inspected for any solid substance or phase separation and the maximum solubility was defined as the range between the last sample in each series without any trace of solids or phase separation, and the first sample with remaining and undissolved substance or a phase separation.

physchem = conditions: aqueous with cosolvent or surfactant or cyclodextrin
Experimental: as §1

Row | SMILES | solubility ([1]; PEG 400 (50%) solution, aqueous with cosolvent or surfactant or cyclodextrin) [µg/mL] | Sol. in water ([1]; in water) [mg/L] | sol. in microemulsion 1a ([1]; microemulsion 1a, 25° C., at least one week, range between last clear and first undissolved sample) [mg/L] | sol. in microemulsion 1b ([1]; microemulsion 1b, 25° C., at least one week, range between last clear and first undissolved sample) [mg/L] | amount possible to administrate using the microemulsion compared to a 50% solution PEG 400 ([1]; microemulsion vs 50% solution PEG 400) | solubility (physchem) [µg/mL]
1 | CCOc1c(C)cc2c(c1C)[C@@]1(C)Cc3ccccc3[C@@]1(C)N2 (relative stereo) [The indeno indole, cis-4b,5,9b,10-tetrahydro-4b,7,9,9b-tetramethyl-8-ethoxy-indeno(1,2-b)indole] | 200 (≈ 651 µM) | 2.0 | 40000 to 50000 | 60000 to 75000 | over 100 times | 
2 | CCOC(=O)C1=C(C)NC(C)=C(C(=O)OC)C1c1cccc(Cl)c1Cl (stereo not drawn) [Felodipine, ethyl methyl 4-(2,3-dichlorophenyl)-1,4-dihydro-2,6-dimethyl-3,5-pyridinedicarboxylate] |  |  |  |  |  | 700 (≈ 1820 µM)
